{"source": "patent US11382889B2", "about": "“NRF2 activators for the prevention and/or treatment of axonal degeneration” (priority 2018, dated 2022)", "type_in_all_cases": "in vivo", "key": {"Abcd1− mice spinal cord": {"test_system": "Abcd1− mice spinal cord", "test": "Inflammatory profile (quantitative RT-PCR) and oxidative lesions (GC/MS) in Abcd1− mice spinal cord", "conditions": "12 months of age", "method": "a) Th1 (Nfκb2, Il1β, Il6, Tnfα, Tnfrsf1a, Ccl5, Cxcl9, Cxcl10, Ccr6) and b) Th2 (Fizz1, Chil3, Cxcl12, Il10, Igf1, Mif, Tgfβ1) inflammatory profile in WT (n=8), Abcd1^− (n=8) and Abcd1^−+DMF (n=8) mice spinal cord at 12 months of age. Cytokines, chemokines and other inflammation-related genes expression was measured by quantitative RT-PCR. Gene expression levels were normalized relative to Rplp0. Quantification is depicted as fold change to WT mice. c) Oxidative lesions to lipids and proteins in WT (n=5), Abcd1^− (n=5) and Abcd1^−+DMF (n=5) mice spinal cord at 12 months of age. AASA, CEL, CML and MDAL levels were measured by GC/MS. Quantification is represented as fold change to WT mice. Data are shown as mean±SD (*p<0.05, **p<0.01, ***p<0.001 after one-way ANOVA test followed by Tukey's post-hoc test; p<0.05, p<0.01, p<0.001 after non-parametric Kruskal-Wallis' test).\nCages contained 3 to 5 animals.\nWe used two X-ALD mouse models in this study. We characterized the biochemical signs of adult X-ALD in Abcd1^− mice at 12 months of age. These mice show biochemical signs of pathology, including oxidative stress and energetic homeostasis impairment, before the first clinical signs of AMN-like pathology (axonopathy and locomotor impairment) appear at 20 months.\n(§1) For biochemical analysis, we killed the mice and stored the tissues at −80° C. after snap-freezing them in liquid nitrogen. For histological analysis, spinal cord was harvested from 18-month-old mice after perfusing them with 4% paraformaldehyde (PFA; Sigma-Aldrich, Ref. 441244) in 0.1 M phosphate buffer pH 7.4. Histological and behavioural tests were performed in a blind way with respect to the animal's genotype and for the treatment administered.\nIn Abcd1^− mouse, a functional genomics assay detected NFκB-mediated inflammatory pathway activation in Abcd1^− mouse spinal cord, and increased expression of several proinflammatory genes. Regarding AMN patients, we have recently described a general dysregulation of inflammatory pathways in peripheral blood mononuclear cells (PBMCs) and plasma from AMN patients. As DMF is a classical immunomodulatory drug, we examined its effects on mRNA expression of several inflammation-related genes in Abcd1^− mice spinal cord.\nNuclear factor kappa B subunit 2 (Nfκb2), which belongs to the non-canonical NFκB pathway, as well as the majority of M1 markers were increased in Abcd1^− mouse spinal cord, including interleukin 1 beta (Il1β), tumour necrosis factor alpha (Tnfα), tumour necrosis factor receptor superfamily member 1a (Tnfrsf1a), chemokine (C-C motif) ligand 5 (Ccl5), chemokine (C-X-C motif) ligand 9 (Cxcl9), chemokine (C-X-C motif) ligand 10 (Cxcl10) and chemokine (C-C motif) receptor type 6 (Ccr6) (FIG. 2a). […] Only few of them were decreased in Abcd1^− mouse spinal cord: interleukin 6 ([…]), resistin like alpha (Retnla, also called Fizz1) and macrophage migration inhibitory factor (Mif) (FIG. 2a-b)."}, "[1]": {"test_system": "Abcd1−/Abcd2−/− (DKO) mice spinal cord", "test": "Immunohistological analysis of axonal pathologies in Abcd1−/Abcd2−/− (DKO) mice spinal cord", "conditions": "18 months of age, DMF 100 mg/kg in chow for 6 months", "text": "(§2) a-x) Immunohistological analysis of axonal pathologies performed in 18-month-old WT, Abcd1^−/Abcd2^−/− (DKO) and Abcd1^−/Abcd2^−/− mice treated with DMF (DKO+DMF) (n=5 per genotype and condition). Spinal cord immunohistological sections were processed for (a-c) Iba1, (d-f) GFAP, (g-i) Synaptophysin, (j-l) APP, (m-o) Sudan black, (p-r) 8-oxo-dG, (s-u) CYT C and (v-x) SMI-32 immunostaining. Representative images for (a, d, g, j, m, p, s, v) WT, (b, e, h, k, n, q, t, w) DKO, and (c, f, i, l, o, r, u, x) DKO+DMF are shown. Scale bars=25 μm (a-r) and […] (s-x). y) Quantification of synaptophysin and APP accumulations in spinal cord immunohistological sections of WT (n=5), DKO (n=5) and DKO+DMF (n=5) mice. z) Bar-cross and treadmill tests performed on 18-month-old WT (n=14), Abcd1^−//Abcd2^−/− (DKO) (n=16) and Abcd1^−//Abcd2^−/− mice treated with DMF (DKO+DMF) (n=14). […] Values are expressed as mean±SD (*p<0.05, **p<0.01, ***p<0.001 after one-way ANOVA test followed by Tukey's post hoc test; p<0.05, p<0.001 after non-parametric Kruskal-Wallis' test).\n(§3) To address the therapeutic effect of DMF, we assessed the clinical signs of AMN in Abcd1^−/Abcd2^−/− (DKO) mice, which display increased VLCFA accumulation in the spinal cord, higher levels of oxidative damage to proteins, and a more severe AMN-like pathology with an earlier onset at 12 months of age.\nas §1\nTo evaluate the effect of DMF on axonal degeneration and locomotor impairment in X-ALD, Abcd1^−/Abcd2^−/− mice (DKO) were fed with chow including DMF (100 mg/kg)."}, "[2]": {"test_system": "Abcd1−/Abcd2−/− (DKO) mice", "test": "Bar cross and treadmill tests in Abcd1−/Abcd2−/− (DKO) mice", "conditions": "18 months of age, end of treatment, DMF 100 mg/kg in chow for 6 months", "text": "as §2\nas §3, with “age. […]” for “age.”"}, "[3]": {"conditions": "Abcd1− mouse spinal cord, DMF 100 mg/kg/day in chow"}}, "note": "Structures can show the parent of a compound that is named as a salt."}
{"smiles": "COC(=O)/C=C/C(=O)OC", "note": "[DMF, dimethyl fumarate]", "values": [{"measurement": "oxidative damage to proteins and lipids (AASA, CEL, CML, MDAL)", "setting": "Abcd1− mice spinal cord; Abcd1− mice spinal cord, DMF 100 mg/kg/day in chow for 4 months", "value": "prevents"}, {"measurement": "Il1β and Chil3 mRNA", "setting": "Abcd1− mice spinal cord; [3]", "value": "exacerbated the induction"}, {"measurement": "Tnfrsf1a, Cxcl9 and Fizz1 mRNA", "setting": "Abcd1− mice spinal cord; [3]", "value": "no effect"}, {"measurement": "interleukin 10 (Il10) mRNA", "setting": "Abcd1− mice spinal cord; [3]", "value": "upregulated"}, {"measurement": "mRNA levels of Nfκb2, Il6, Tnfα, Ccl5, Cxcl10, Ccr6, Mif, Cxcl12, Tgfβ1, Igf1", "setting": "Abcd1− mice spinal cord; [3]", "value": "normalizing"}, {"measurement": "accumulation of APP in axons", "setting": "[1]; DKO mice spinal cord", "value": "prevented the accumulation"}, {"measurement": "accumulation of synaptophysin in axons", "setting": "[1]; DKO mice spinal cord", "value": "prevented the accumulation"}, {"measurement": "astrocytosis (GFAP)", "setting": "[1]; DKO mice spinal cord", "value": "reversed"}, {"measurement": "microgliosis (Iba1)", "setting": "[1]; DKO mice spinal cord", "value": "reversed"}, {"measurement": "mitochondrial levels (CYT C staining in motor neurons)", "setting": "[1]; DKO mice spinal cord", "value": "improved"}, {"measurement": "motor neurons health (SMI-32 staining)", "setting": "[1]; DKO mice spinal cord", "value": "improved"}, {"measurement": "oxidative damage to DNA (8-oxo-dG staining)", "setting": "[1]; DKO mice spinal cord", "value": "reduced"}, {"measurement": "myelin debris along the spinal cord (Sudan black)", "setting": "[1]; DKO mice", "value": "halted the appearance"}, {"measurement": "bar cross test (number of slips and time to cross the bar)", "setting": "[2]", "value": "behaved similar to WT mice"}, {"measurement": "treadmill test (number and duration of shocks)", "setting": "[2]", "value": "improved the performance of DKO mice in this test, up to the level of WT mice"}]}
